Measured values published in US7446079B2, “Perfumes for rinse-off systems” (Givaudan Fragrances Corporation, priority 2005, dated 2008).
Where “and” joins values, the source holds several entries; their conditions need not be identical. Equal entries are not always repeated. Where two headings read alike, the source gives them in different places.

What was measured:
[1] = GC-MS headspace release profile of Tropical Fruit perfume in shampoo, 1/100 dilution in water; assay type: physicochemical
Experimental: A 10 gram sample of formulation and fragrance was added to an empty 1000 ml pyrex beaker. This beaker was then filled with 1000 ml of 120 F tap water. Beaker with diluted shampoo sample was then immediately placed into a semi-enclosed plexiglass chamber.
Headspace Sampling: Once beaker was placed into chamber a Carboxan SPME field fiber was held at the top-side opening of the chamber over the beaker containing the sample. […] […] Top of plexiglass chamber was held open for entire 5 minutes of headspace sampling.

[2] = in water, cited from earlier work; for exp ODT (ppb) water: experimental values from the Booleans database

Compound | GC Abundance ([1]; headspace at 40 seconds) | GC Abundance ([1]; headspace at 50 seconds) | GC Abundance ([1]; headspace at 30 seconds) | also measured
CC(C)CC1CC(C)(O)CCO1 (stereo not shown) [FLOROL] | 10000 | 15000 |  | 
Cc1ccc2c(c1)OCC(=O)CO2 [CALONE] |  | 1000 |  | 
CC/C=C\CCOC(=O)OC [LIFFAROME] | 3000 | 3000 | 3000 | GC Abundance ([1]; headspace at 20 seconds): 3000
C=CC(C)(O)CCC=C(C)C (stereo not shown) [LINALOOL] | 18000 | 18000 | 18000 | ODT (ppb) ([2]; Table 9): less than 50 ppb; ODT (ppb) ([2]; Table 11): less than 50 ppb; ODT (ppb) ([2]; Table 13): less than 50 ppb; GC Abundance ([1]; headspace at 10 seconds): 500; GC Abundance ([1]; headspace at 20 seconds): 18000
CCOC(=O)C1OC1(C)c1ccccc1 (stereo not shown) [Ethyl 2,3-epoxy-3-methyl-3-phenylpropionate] |  |  |  | exp ODT (ppb) water [2]: 25 ppb
CC(C)(O)CCCC1=CCC(C=O)CC1 (stereo not shown) [LYRAL] |  |  |  | ODT (ppb) ([2]; Table 13): less than 50 ppb
CC/C=C\CCOC(C)=O [CIS-3-HEXENYL ACETATE] | 14000 | 14000 | 14000 | ODT (ppb) ([2]; Table 9): less than 50 ppb; ODT (ppb) ([2]; Table 11): less than 50 ppb; ODT (ppb) ([2]; Table 13): less than 50 ppb; GC Abundance ([1]; headspace at 20 seconds): 5000
CCCCOC(C)=O [Butyl acetate] |  |  |  | exp ODT (ppb) water [2]: 44-88 ppb
CC(=O)OC(C)(C)Cc1ccccc1 [DIMETHYL BENZYL CARBINYL ACETATE] | 8000 | 8000 | 2000 | 
C=CCOC(=O)CCCCC [ALLYL CAPROATE] |  |  |  | ODT (ppb) ([2]; Table 9): less than 50 ppb; ODT (ppb) ([2]; Table 11): less than 50 ppb; ODT (ppb) ([2]; Table 13): less than 50 ppb
CCCCCCOC(C)=O [HEXYL ACETATE] |  |  |  | ODT (ppb) ([2]; Table 9): less than 50 ppb; ODT (ppb) ([2]; Table 11): less than 50 ppb; ODT (ppb) ([2]; Table 13): less than 50 ppb
CC(=O)OC1CCC(C(C)(C)C)CC1 (stereo not shown) [VERTENEX HC] | 8000 | 10000 | 2000 | 
CCCCCOC(=O)CCC [Pentyl butyrate] |  |  |  | exp ODT (ppb) water [2]: 44-87 ppb
CCC(=O)OC/C=C(\C)CCC=C(C)C [trans-3,7-Dimethyl-2,6-octadien-1-yl propanoate] |  |  |  | exp ODT (ppb) water [2]: 10 ppb
CC(=O)OC/C=C(/C)CCC=C(C)C [NERYL ACETATE] |  |  |  | ODT (ppb) ([2]; Table 9): less than 50 ppb; ODT (ppb) ([2]; Table 11): less than 50 ppb; ODT (ppb) ([2]; Table 13): less than 50 ppb
OCc1ccccc1 [BENZYL ALCOHOL] | 50 | 100 |  | 
CC(=O)C=CC1C(C)=CCCC1(C)C (stereo not drawn) [alpha ionone, 4-(2,2,6-Trimethyl-2-cyclohexen-1-yl)-3-buten-2-one] |  |  |  | exp ODT (ppb) water [2]: 0.4-10 ppb
CC(C)=CCCC(C)CCO (stereo not shown) [CITRONELLOL AJ, FCC, CITRONELLOL] | 7000 | 7000 | 7000 | GC Abundance ([1]; headspace at 20 seconds): 7000
C=C(C)[C@H]1CC=C(C)CC1 [d-LIMONENE, d-1-Methyl-4-isopropenyl-1-cyclohexene] | 5000 | 4000 | 7000 | GC Abundance ([1]; headspace at 5 seconds, Tropical Fruit perfume 1% in shampoo): 7000; GC Abundance ([1]; headspace at 10 seconds): 7000; GC Abundance ([1]; headspace at 20 seconds): 7000
C=CC(C)(O)CCC=C(C)CC (mixture of isomers) [ETHYL LINALOOL] | 10000 | 10000 | 10000 | GC Abundance ([1]; headspace at 20 seconds): 5000

Compound | GC Abundance ([1]; headspace at 40 seconds) | GC Abundance ([1]; headspace at 50 seconds) | GC Abundance ([1]; headspace at 30 seconds) | also measured
CC/C=C\CCO [CIS-3-HEXEN-1-OL] | 14000 | 14000 | 14000 | GC Abundance ([1]; headspace at 20 seconds): 14000
OXANONE CRYSTALS |  | 70 |  | 
C=CCOC(=O)COC1CCCCC1 [CYCLOGALBANATE] |  |  |  | ODT (ppb) ([2]; Table 9): less than 50 ppb; ODT (ppb) ([2]; Table 11): less than 50 ppb; ODT (ppb) ([2]; Table 13): less than 50 ppb
CC(C)=CCCC(C)CCCC(C)C=O (stereo not shown) [ADOXAL, 2,6,10-Trimethyl-9-undecenal] | 300 | 3000 |  | 
CCCC(C)C(=O)OCC (stereo not shown) [MANZANATE, Ethyl 2-methylpentanoate] | 3000 | 1500 | 4000 | exp ODT (ppb) water [2]: 0.0030 ppb; GC Abundance ([1]; headspace at 10 seconds): 1000; GC Abundance ([1]; headspace at 20 seconds): 4000
C=CC(C)CCCC(C)(C)O (stereo not shown) [DIHYDROMYRCENOL] | 15000 | 15000 | 15000 | GC Abundance ([1]; headspace at 10 seconds): 500; GC Abundance ([1]; headspace at 20 seconds): 15000
CCCCCOC(C)=O [Pentyl Acetate] |  |  |  | exp ODT (ppb) water [2]: 43 ppb
CCCCCCC1CCC(=O)O1 (stereo not shown) [GAMMA-DECALACTONE, 5-Hexyldihydro-2(3H)-furanone] | 4000 | 7000 |  | ODT (ppb) ([2]; Table 9): less than 50 ppb; ODT (ppb) ([2]; Table 11): less than 50 ppb; ODT (ppb) ([2]; Table 13): less than 50 ppb
C=CCOC(=O)CCCCCC [ALLYL HEPTOATE] | 12000 | 12000 | 10000 | GC Abundance ([1]; headspace at 20 seconds): 4000
CCCCCC1CCC(=O)O1 (stereo not shown) [ALDEHYDE C-18] | 4000 | 4000 | 2000 | GC Abundance ([1]; headspace at 20 seconds): 2000
C=CCOC(=O)CCC1CCCCC1 [ALLYL CYCLOHEXYL PROPIONATE] | 7000 | 10000 |  | ODT (ppb) ([2]; Table 9): less than 50 ppb; ODT (ppb) ([2]; Table 11): less than 50 ppb; ODT (ppb) ([2]; Table 13): less than 50 ppb
VERTOFIX COEUR |  | 50 |  | 
Cc1ccc(C(C)C)c(O)c1 [5-Methyl-2-isopropylphenol] |  |  |  | exp ODT (ppb) water [2]: 400 ppb
CCCCCCCC=O [1-Octanal] |  |  |  | exp ODT (ppb) water [2]: 30 ppb
CC1=CCC(/C=C\C(C)C(C)O)C1(C)C (stereo not shown) [EBANOL] |  |  |  | ODT (ppb) ([2]; Table 9): less than 50 ppb; ODT (ppb) ([2]; Table 11): less than 50 ppb; ODT (ppb) ([2]; Table 13): less than 50 ppb
CC(C)c1cccc(C(C)CC=O)c1 (stereo not shown) [FLORHYDRAL] | 9000 | 10000 |  | 
CCC(=O)OCc1ccccc1 [BENZYL PROPIONATE] | 6000 | 6000 | 6000 | GC Abundance ([1]; headspace at 20 seconds): 2000
CC(=O)OCc1ccccc1 [BENZYL ACETATE] | 18000 | 18000 | 17000 | GC Abundance ([1]; headspace at 20 seconds): 12000
CC1=CCC(CCC(C)C(C)O)C1(C)C (stereo not shown) [SANDALORE] |  | 2000 |  | 
COc1cc(C=O)ccc1O [4-Hydroxy-3-methoxybenzaldehyde] |  |  |  | exp ODT (ppb) water [2]: 25-58 ppb and 20-200 ppb

Compound | GC Abundance ([1]; headspace at 40 seconds) | GC Abundance ([1]; headspace at 50 seconds) | GC Abundance ([1]; headspace at 30 seconds) | also measured
CC1=CC(C)C(C=O)CC1 (stereo not shown) [TRIPLAL] | 10000 | 6000 | 14000 | ODT (ppb) ([2]; Table 9): less than 50 ppb; ODT (ppb) ([2]; Table 11): less than 50 ppb; ODT (ppb) ([2]; Table 13): less than 50 ppb; GC Abundance ([1]; headspace at 10 seconds): 1000; GC Abundance ([1]; headspace at 20 seconds): 14000
CCOC(=O)CC1(C)OCCO1 [FRUCTONE] | 5000 | 5000 | 5000 | ODT (ppb) ([2]; Table 9): less than 50 ppb; ODT (ppb) ([2]; Table 11): less than 50 ppb; ODT (ppb) ([2]; Table 13): less than 50 ppb; GC Abundance ([1]; headspace at 20 seconds): 3000
CCOC(=O)CC(C)=O [ETHYL ACETOACETATE] |  |  |  | ODT (ppb) ([2]; Table 9): less than 50 ppb; ODT (ppb) ([2]; Table 11): less than 50 ppb; ODT (ppb) ([2]; Table 13): less than 50 ppb
CCC=C(C)C(O)CCCCC (stereo not shown) [UNDECAVERTOL, 4-Methyl-3-decen-5-ol] | 10000 | 10000 |  | 
CC/C=C\CCOC(=O)c1ccccc1O [CIS-3-HEXENYL SALICYLATE] |  |  |  | ODT (ppb) ([2]; Table 9): less than 50 ppb; ODT (ppb) ([2]; Table 11): less than 50 ppb; ODT (ppb) ([2]; Table 13): less than 50 ppb
CC(C=O)Cc1ccc(C(C)(C)C)cc1 (stereo not shown) [LILIAL] |  |  |  | ODT (ppb) ([2]; Table 9): less than 50 ppb; ODT (ppb) ([2]; Table 11): less than 50 ppb; ODT (ppb) ([2]; Table 13): less than 50 ppb
CCC(C)(O)CCC=C(C)C (stereo not shown) [DIHYDROLINALOOL] | 3000 | 3000 | 3000 | GC Abundance ([1]; headspace at 20 seconds): 3000
C=C(C)C1CC=C(C)C(=O)C1 (stereo not shown) [I-1-Methyl-4-isopropenyl-6-cyclohexen-2-one] |  |  |  | exp ODT (ppb) water [2]: 50 ppb
O=C1CCCCCCCCCCCCCCO1 [EXALTOLIDE TOTAL] |  | 50 |  | 
CC1(C)CCC[C@]2(C)[C@H]3CCO[C@]3(C)CC[C@@H]12 [AMBROXAN] |  | 1000 |  | 
CC1OC(C)C2Cc3ccccc3C2O1 (stereo not shown) [MAGNOLAN/CORPS 719] | 1000 | 3000 |  | 
CC(C)=CCCC(C)C=O (stereo not shown) [melonal, 2,6-Dimethyl-5-heptenal] |  |  |  | exp ODT (ppb) water [2]: 16 ppb
CC=Cc1ccc(O)c(OC)c1 [1-Hydroxy-2-methoxy-4-propenylbenzene] |  |  |  | exp ODT (ppb) water [2]: 30-40 ppb
CC(C=O)Cc1ccc2c(c1)OCO2 (stereo not shown) [HELIONAL] | 500 | 5000 |  | 
CC(C)C(=O)OCCOc1ccccc1 [PHENOXY ETHYL ISOBUTYRATE] |  |  |  | ODT (ppb) ([2]; Table 9): less than 50 ppb; ODT (ppb) ([2]; Table 11): less than 50 ppb; ODT (ppb) ([2]; Table 13): less than 50 ppb
COC(=O)c1c(C)cc(O)c(C)c1O [METHYL ATRATATE] |  | 50 |  | 
O=C1CCCCCCCCCCCC(=O)OCCO1 [ETHYLENE BRASSYLATE] |  | 20 |  | 
CC(C)=CCCC(C)CC#N (stereo not shown) [CITRONELLYL NITRILE] |  |  |  | ODT (ppb) ([2]; Table 9): less than 50 ppb; ODT (ppb) ([2]; Table 11): less than 50 ppb; ODT (ppb) ([2]; Table 13): less than 50 ppb
CC/C(=C\CC1CC=C(C)C1(C)C)CO (stereo not shown) [BACDANOL] | 100 | 5000 |  | 
CC(=O)OC(C)(C)C1CC=C(C)CC1 (stereo not shown) [TERPINYL ACETATE] | 9000 | 9000 | 1000 | 
